1 molecule from patent US20240352533A1, “Monocarboxylic Acid Transporter 4 as a Biomarker for Hypoxia Driven Tumor Growth and Treatment” (NantBio, Inc., priority 2023, published 2024) can be followed below.

This assay concerns Ishikawa cells. The experiment in a line: Tumorsphere growth with and without Mct-4 overexpression. The format is cell-based. The note with it: 72 hr. As to the method: After 18 hr, 10× drug was added, and after 72 hr, plates were imaged.

Consider `Cc1cc(-c2nc(-c3ccc(OC(F)(F)F)cc3)no2)nn1Cc1ccnc(N2CCN(C3CC3)CC2)c1` [Bay87-2243], for which the tumorsphere growth entry (Ishikawa cells, 384-well round bottom) is listed as “tumorsphere growth inhibition”. Also, the “tumorsphere growth inhibition under Mct-4 overexpression” value (Mct-4 overexpressing Ishikawa cells) is recorded as “Mct-4 overexpression reverses tumorsphere growth inhibition”.
